Consider 25 compounds from patent US10577363B2, “Substituted piperidine compounds” (EPIZYME, INC., priority 2014, dated 2020).

In assay [1] the target is T1, SMYD3 (Homo sapiens (Human), UniProt Q9H7B4). The experiment in a line: SMYD3 biochemical assay (SPA, 3H-SAM methylation of MEKK2 protein substrate). The following applies: average of n = 1 to n = 50; read-out: SMYD3 Biochem IC50. The method, boiled down:
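SPA methyltransferase format: tag-cleaved human SMYD3, insect-cell GST-MEKK2 protein substrate, 3H-SAM donor, 30 min RT enzyme–compound preincubation, 100 uM cold SAM quench.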

In assay [2] the target is T1, SMYD3. The experiment in a line: SMYD3 cell assay (Trimethyl-MEKK2 In-Cell Western in 293T/17 cells). The format is cell-based. The conditions noted are these: average of n = 1 to n = 50; read-out: SMYD3 Cell IC50. An outline of the steps: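 In-Cell Western readout: methanol-fixed cells stained for trimethyl-MEKK2 and flag tag, ratio per well normalized to DMSO and background controls.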

T1 sequence (Q9H7B4 whole entry): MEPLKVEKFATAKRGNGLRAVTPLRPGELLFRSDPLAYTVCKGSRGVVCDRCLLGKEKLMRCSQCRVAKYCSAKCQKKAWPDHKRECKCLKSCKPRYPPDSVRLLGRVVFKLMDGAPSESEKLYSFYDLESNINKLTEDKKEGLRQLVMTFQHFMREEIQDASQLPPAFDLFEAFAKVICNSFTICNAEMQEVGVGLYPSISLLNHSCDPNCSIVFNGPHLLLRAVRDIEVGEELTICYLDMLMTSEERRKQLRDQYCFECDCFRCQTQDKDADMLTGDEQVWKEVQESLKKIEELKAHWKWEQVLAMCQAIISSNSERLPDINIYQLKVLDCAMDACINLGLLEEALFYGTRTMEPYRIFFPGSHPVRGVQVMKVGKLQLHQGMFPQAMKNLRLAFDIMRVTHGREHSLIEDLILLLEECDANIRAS

One may read the IC50 as the concentration that inhibits the measured activity by half. For the compound `CC(C)CNCCCS(=O)(=O)N1CC[C@H](NC(=O)c2cc(C3CC3)on2)C[C@@H]1C` [compound 640, 5-cyclopropyl-N-((2S,4S)-1-((3-(isobutylamino)propyl)sulfonyl)-2-methylpiperidin-4-yl)isoxazole-3-carboxamide], the IC50 was 35.7 nM in assay [1] and 480 nM in assay [2].

In the case of `CN1CCN(S(=O)(=O)N2[C@@H]3CC[C@H]2C[C@@H](NC(=O)c2cc(C4CC4)on2)C3)CC1` [compound 641, 5-cyclopropyl-N-((1R,3r,5S)-8-((4-methylpiperazin-1-yl)sulfonyl)-8-azabicyclo[3.2.1]octan-3-yl)isoxazole-3-carboxamide], the IC50 came to 36.3 nM in assay [1] and 188 nM in assay [2].

As to `C[C@@H]1CN(S(=O)(=O)CCCN)[C@H](C)C[C@@H]1NC(=O)c1cc(C2CC2)on1` [compound 642, N-((2R,4S,5R)-1-((3-aminopropyl)sulfonyl)-2,5-dimethylpiperidin-4-yl)-5-cyclopropylisoxazole-3-carboxamide], the IC50 in assay [1] turned out to be 37.6 nM; in assay [2], 571 nM.

As for `O=C(N[C@H]1C[C@H]2CC[C@@H](C1)N2S(=O)(=O)N1CCNC(CO)C1)c1cc(C2CC2)on1` (stereo partly drawn) [compound 643, 5-cyclopropyl-N-((1R,3r,5S)-8-((3-(hydroxymethyl)piperazin-1-yl)sulfonyl)-8-azabicyclo[3.2.1]octan-3-yl)isoxazole-3-carboxamide], the half-maximal inhibitory concentration (IC50) was determined as 37.8 nM in assay [1] and 211 nM in assay [2].

Turning to `C[C@@H]1C[C@H](NC(=O)c2cc(C3CC3)on2)CCN1C(=O)c1ccc(C2CCNCC2)cc1` [compound 644, 5-cyclopropyl-N-((2R,4R)-2-methyl-1-(4-(piperidin-4-yl)benzoyl)piperidin-4-yl)isoxazole-3-carboxamide], the IC50 in assay [1] was 41.3 nM; in assay [2] it was 303 nM.

Turning to `C[C@H]1C[C@@H](NC(=O)c2cc(C3CC3)on2)CCN1S(=O)(=O)CCCNC(c1ccccc1)c1ccccc1` [compound 645, N-((2S,4S)-1-((3-(benzhydrylamino)propyl)sulfonyl)-2-methylpiperidin-4-yl)-5-cyclopropylisoxazole-3-carboxamide], the IC50 in assay [1] was determined as 44.4 nM; in assay [2] it was 575 nM.

Consider `C[C@H]1CN(S(=O)(=O)NC2CCNCC2)CC[C@H]1NC(=O)c1cc(C2CC2)on1` [compound 646, 5-cyclopropyl-N-((3S,4R)-3-methyl-1-(N-(piperidin-4-yl)sulfamoyl)piperidin-4-yl)isoxazole-3-carboxamide], for which the IC50 in assay [1] turned out to be 45.2 nM; in assay [2] it was 755 nM.

As for `O=C(N[C@H]1CCN(S(=O)(=O)CC2CCNCC2)[C@@H](Cc2ccccc2)C1)c1cc(C2CC2)on1` [compound 647, N-((2S,4S)-2-benzyl-1-((piperidin-4-ylmethyl)sulfonyl)piperidin-4-yl)-5-cyclopropylisoxazole-3-carboxamide], the values for the IC50 in assay [1] and in assay [2] were 45.5 nM and 809 nM, respectively.

Take `COCCCN1CCC(CS(=O)(=O)N2CC[C@@H](NC(=O)c3cc(C4CC4)on3)[C@@H](C)C2)CC1` [compound 648, 5-cyclopropyl-N-((3S,4R)-1-(((1-(3-methoxypropyl)piperidin-4-yl)methyl)sulfonyl)-3-methylpiperidin-4-yl)isoxazole-3-carboxamide]: the IC50 stood at 46.8 nM in assay [1] and 331 nM in assay [2].

As for `CNCCS(=O)(=O)N1[C@@H]2CC[C@H]1C[C@@H](NC(=O)c1cc(C3CC3)on1)C2` [compound 649, 5-cyclopropyl-N-((1R,3r,5S)-8-((2-(methylamino)ethyl)sulfonyl)-8-azabicyclo[3.2.1]octan-3-yl)isoxazole-3-carboxamide], the values for the IC50 in assay [1] and in assay [2] were 47.2 nM and 261 nM, respectively.

With `C[C@H]1C[C@@H](NC(=O)c2cc(C3CC3)on2)CCN1S(=O)(=O)NCCN` [compound 650, N-((2S,4S)-1-(N-(2-aminoethyl)sulfamoyl)-2-methylpiperidin-4-yl)-5-cyclopropylisoxazole-3-carboxamide], the values for the concentration for half-maximal inhibition (IC50) in assay [1] and in assay [2] were 49.1 nM and 4630 nM, respectively.

With `CN(C)C1CCN(CCS(=O)(=O)N2[C@@H]3CC[C@H]2C[C@@H](NC(=O)c2cc(C4CC4)on2)C3)C1` (stereo partly drawn) [compound 651, 5-cyclopropyl-N-((1R,3r,5S)-8-((2-(3-(dimethylamino)pyrrolidin-1-yl)ethyl)sulfonyl)-8-azabicyclo[3.2.1]octan-3-yl)isoxazole-3-carboxamide], the IC50 in assay [1] was 50.6 nM; in assay [2], 532 nM.

Regarding `C[C@@H]1C[C@@H](NC(=O)c2cc(C3CC3)on2)CCN1S(=O)(=O)N1CCNCC1` [compound 652, 5-cyclopropyl-N-((2R,4S)-2-methyl-1-(piperazin-1-ylsulfonyl)piperidin-4-yl)isoxazole-3-carboxamide], the IC50 in assay [1] stood at 51.1 nM; in assay [2], 339 nM.

As to `C[C@H]1CN(S(=O)(=O)N(C)C2CCNCC2)CC[C@H]1NC(=O)c1cc(C2CC2)on1` [compound 653, 5-cyclopropyl-N-((3S,4R)-3-methyl-1-(N-methyl-N-(piperidin-4-yl)sulfamoyl)piperidin-4-yl)isoxazole-3-carboxamide], the IC50 came to 55 nM in assay [1] and 328 nM in assay [2].

On to `COCCN1CCC(CS(=O)(=O)N2CC[C@@H](NC(=O)c3cc(C4CC4)on3)[C@@H](C)C2)CC1` [compound 654, 5-cyclopropyl-N-((3S,4R)-1-(((1-(2-methoxyethyl)piperidin-4-yl)methyl)sulfonyl)-3-methylpiperidin-4-yl)isoxazole-3-carboxamide], for which the IC50 was determined as 56 nM in assay [1] and 340 nM in assay [2].

In the case of `C[C@H]1CN(S(=O)(=O)CC2CCN(Cc3ccccc3)CC2)CC[C@H]1NC(=O)c1cc(C2CC2)on1` [compound 655, N-((3S,4R)-1-(((1-benzylpiperidin-4-yl)methyl)sulfonyl)-3-methylpiperidin-4-yl)-5-cyclopropylisoxazole-3-carboxamide], the half-maximal inhibitory concentration (IC50) in assay [1] amounted to 56.4 nM; in assay [2], 497 nM.

As for `CN1CCN(S(=O)(=O)N2[C@@H]3CC[C@H]2C[C@@H](NC(=O)c2cc(C4CC4)on2)C3)CC1(C)C` [compound 656, 5-cyclopropyl-N-((1R,3r,5S)-8-((3,3,4-trimethylpiperazin-1-yl)sulfonyl)-8-azabicyclo[3.2.1]octan-3-yl)isoxazole-3-carboxamide], the IC50 in assay [1] came out at 59.8 nM; in assay [2], 441 nM.

For the compound `C[C@@H]1CN(C(=O)c2ccc(C(C)(C)N)cc2)[C@H](C)C[C@@H]1NC(=O)c1cc(C2CC2)on1` [compound 657, N-((2R,4S,5R)-1-(4-(2-aminopropan-2-yl)benzoyl)-2,5-dimethylpiperidin-4-yl)-5-cyclopropylisoxazole-3-carboxamide], the results for the IC50 in assay [1] and in assay [2] were 63.4 nM and 634 nM, respectively.

As to `C[C@@H]1C[C@H](NC(=O)c2cc(C3CC3)on2)CCN1C(=O)c1ccc(CN2CCNCC2)cc1` [compound 658, 5-cyclopropyl-N-((2R,4R)-2-methyl-1-(4-(piperazin-1-ylmethyl)benzoyl)piperidin-4-yl)isoxazole-3-carboxamide], the IC50 in assay [1] worked out at 64.7 nM; in assay [2] it was 1400 nM.

As to `CN(C1CCN(Cc2ccccc2)CC1)S(=O)(=O)N1[C@@H]2CC[C@H]1C[C@@H](NC(=O)c1cc(C3CC3)on1)C2` [compound 659, N-((1R,3r,5S)-8-(N-(1-benzylpiperidin-4-yl)-N-methylsulfamoyl)-8-azabicyclo[3.2.1]octan-3-yl)-5-cyclopropylisoxazole-3-carboxamide], the IC50 in assay [1] was 66.4 nM; in assay [2], 578 nM.

Turning to `CC1CN(S(=O)(=O)N2[C@@H]3CC[C@H]2C[C@@H](NC(=O)c2cc(C4CC4)on2)C3)CCN1C` (stereo partly drawn) [compound 660, 5-cyclopropyl-N-((1R,3r,5S)-8-((3,4-dimethylpiperazin-1-yl)sulfonyl)-8-azabicyclo[3.2.1]octan-3-yl)isoxazole-3-carboxamide], the IC50 came to 66.7 nM in assay [1] and 414 nM in assay [2].

For `C[C@@H]1CN(S(=O)(=O)N2CC[C@H](NC(=O)c3cc(C4CC4)on3)C[C@@H]2C)[C@@H](C)CN1` [compound 661, 5-cyclopropyl-N-((2S,4S)-1-(((2S,5R)-2,5-dimethylpiperazin-1-yl)sulfonyl)-2-methylpiperidin-4-yl)isoxazole-3-carboxamide], the 50% inhibitory concentration (IC50) in assay [1] came to 77.3 nM; in assay [2], 490 nM.

With `O=C(N[C@H]1CCN(S(=O)(=O)CC2CCN(CCO)CC2)[C@@H](Cc2ccccc2)C1)c1cc(C2CC2)on1` [compound 662, N-((2S,4S)-2-benzyl-1-(((1-(2-hydroxyethyl)piperidin-4-yl)methyl)sulfonyl)piperidin-4-yl)-5-cyclopropylisoxazole-3-carboxamide], the 50% inhibitory concentration (IC50) in assay [1] stood at 80.1 nM; in assay [2] it was 1550 nM.

For `O=C(N[C@H]1C[C@H]2CC[C@@H](C1)N2S(=O)(=O)CCN1CCC(N2CCCCC2)C1)c1cc(C2CC2)on1` (stereo partly drawn) [compound 663, 5-cyclopropyl-N-((1R,3r,5S)-8-((2-(3-(piperidin-1-yl)pyrrolidin-1-yl)ethyl)sulfonyl)-8-azabicyclo[3.2.1]octan-3-yl)isoxazole-3-carboxamide], the IC50 is 85.1 nM in assay [1] and 670 nM in assay [2].

For the compound `C[C@@H]1C[C@H](NC(=O)c2cc(C3CC3)on2)CCN1C(=O)c1ccc([C@@H](C)N)cc1` [compound 664, N-((2R,4R)-1-(4-((R)-1-aminoethyl)benzoyl)-2-methylpiperidin-4-yl)-5-cyclopropylisoxazole-3-carboxamide], the IC50 in assay [1] turned out to be 86.6 nM; in assay [2] it was 1070 nM.
